Values quoted from earlier work as cited in PubChem BioAssay AID1259409 (Chemical Carcinogenesis Research Information System (CCRIS), 2018).

Tested on: rodent chemically induced tumor inhibition, incidence and multiplicity
Test: CCRIS tumor inhibitor studies

SMILES: CC[C@H](C)C(=O)O[C@H]1C[C@H](O)C=C2C=C[C@H](C)[C@H](CC[C@@H](O)C[C@@H](O)CC(=O)O)[C@H]21
- tumour outcome (control, treated, inhibition, significance) (Carcinogen: 1,2-DIMETHYLHYDRAZINE, 540-73-8, Dose [Inhibitor]: 0, 0.001% IN DRINKING WATER FOR 30 WK (STUDY DURATION: 30 WK), Route [Inhibitor]: ORAL, Species: MOUSE, Strain/Sex: ICR/FEMALE, Target Tissue: Type of Lesion: COLON: TUMOR, Dose [Carcinogen]: 10 MG/KG BW 1/WK FOR 15 WK, Promoter: NONE USED): 21/34 (62%), 14/30 (47%), 24%, not significant
- tumour outcome (control, treated, inhibition, significance) (Carcinogen: 1,2-DIMETHYLHYDRAZINE, 540-73-8, Dose [Inhibitor]: 0, 0.005% IN DRINKING WATER FOR 30 WK (STUDY DURATION: 30 WK), Route [Inhibitor]: ORAL, Species: MOUSE, Strain/Sex: ICR/FEMALE, Target Tissue: Type of Lesion: COLON: TUMOR, Dose [Carcinogen]: 10 MG/KG BW 1/WK FOR 15 WK, Promoter: NONE USED): 21/34 (62%), 13/30 (43%), 31%, not significant
- tumour outcome (control, treated, inhibition, significance) (Carcinogen: 1,2-DIMETHYLHYDRAZINE, 540-73-8, Dose [Inhibitor]: 0, 0.01% IN DRINKING WATER FOR 25 WK (STUDY DURATION: 25 WK), Route [Inhibitor]: ORAL, Species: MOUSE, Strain/Sex: ICR/FEMALE, Target Tissue: Type of Lesion: COLON: TUMOR, Dose [Carcinogen]: 10 MG/KG BW 1/WK FOR 15 WK, Promoter: NONE USED): 6/15 (40%), 2/15 (13%), 68%, not significant
- tumour outcome (control, treated, inhibition, significance) (Carcinogen: N-METHYL-N-NITROSOUREA, 684-93-5, Dose [Inhibitor]: 0, 1 PPM IN DRINKING WATER FOR 36 WK BEGINNING POST CARCINOGEN TREATMENT (STUDY DURATION: 40 WK), Route [Inhibitor]: ORAL, Species: RAT, Strain/Sex: F344/FEMALE, Target Tissue: Type of Lesion: COLON: ADENOCARCINOMA, Dose [Carcinogen]: 2 MG 3/WK FOR 3 WK, Promoter: NONE USED): 24/30 (80%), 23/30 (77%), 4%, not significant
- tumour outcome (control, treated, inhibition, significance) (Carcinogen: N-METHYL-N-NITROSOUREA, 684-93-5, Dose [Inhibitor]: 0, 5 PPM IN DRINKING WATER FOR 36 WK BEGINNING POST CARCINOGEN TREATMENT (STUDY DURATION: 40 WK), Route [Inhibitor]: ORAL, Species: RAT, Strain/Sex: F344/FEMALE, Target Tissue: Type of Lesion: COLON: ADENOCARCINOMA, Dose [Carcinogen]: 2 MG 3/WK FOR 3 WK, Promoter: NONE USED): 24/30 (80%), 14/29 (48%), 40%, p<0.05
- tumour outcome (control, treated, inhibition, significance) (Carcinogen: N-METHYL-N-NITROSOUREA, 684-93-5, Dose [Inhibitor]: 0, 25 PPM IN DRINKING WATER FOR 36 WK BEGINNING POST CARCINOGEN TREATMENT (STUDY DURATION: 40 WK), Route [Inhibitor]: ORAL, Species: RAT, Strain/Sex: F344/FEMALE, Target Tissue: Type of Lesion: COLON: ADENOCARCINOMA, Dose [Carcinogen]: 2 MG 3/WK FOR 3 WK, Promoter: NONE USED): 24/30 (80%), 15/30 (50%), 38%, p<0.05
- tumour outcome (control, treated, inhibition, significance) (Carcinogen: N-METHYL-N-NITROSOUREA, 684-93-5, Dose [Inhibitor]: 0, 200 PPM IN DRINKING WATER FOR 40 WK BEGINNING CONCURRENTLY WITH CARCINOGEN TREATMENT (STUDY DURATION: 40 WK), Route [Inhibitor]: ORAL, Species: RAT, Strain/Sex: F344/FEMALE, Target Tissue: Type of Lesion: COLON: ADENOCARCINOMA, Dose [Carcinogen]: 2 MG 3/WK FOR 2 WK, Promoter: NONE USED): 11/16 (69%), 10/16 (63%), 9%, not significant

SMILES: O=S(=O)([O-])[O-].O=S(=O)([O-])[O-].O=S(=O)([O-])[O-].[Mo]
- tumour outcome (control, treated, inhibition, significance) (Carcinogen: N-METHYL-N-BENZYLNITROSAMINE, 937-40-6, Dose [Inhibitor]: 0, 2 PPM IN DIET FOR 1 WK PRIOR TO CARCINOGEN (STUDY DURATION: 25 WK), Route [Inhibitor]: ORAL, Species: RAT, Strain/Sex: F344/MALE, Target Tissue: Type of Lesion: ESOPHAGUS: CARCINOMA, Dose [Carcinogen]: 2.5 MG/KG 1/WK FOR 20 WK): 30/41 (73%), 20/45 (44%), 40%, p<0.01

SMILES: COc1cc2c(c(OC)c1OC)-c1c(cc3c(c1OC)OCO3)C[C@H](C)[C@@](C)(O)C2
- tumour outcome (control, treated, inhibition, significance) (Carcinogen: 7,12-DIMETHYLBENZ[A]ANTHRACENE, 57-97-6, Dose [Inhibitor]: 0, 5 UMOL IN 100 µL ACETONE 30 MIN PRIOR EACH PROMOTER DOSE 2/WK FOR 18 WK BEGINNING 7 D POST CARCINOGEN DOSE (STUDY DUR, Route [Inhibitor]: DERMAL, Species: MOUSE, Strain/Sex: ICR/FEMALE, Target Tissue: Type of Lesion: SKIN: PAPILLOMA, Dose [Carcinogen]: 50 UG IN 100 µL ACETONE ONCE, Promoter: 12-O-TETRADECANOYLPHORBOL-13-ACETATE, 16561-29-8): 100%, 50%, 50%, not calculated

SMILES: Nc1ncn([C@@H]2O[C@H](CO)[C@@H](O)[C@H]2O)c(=O)n1
- tumour outcome (control, treated, inhibition, significance) (Carcinogen: DIETHYLNITROSAMINE, 55-18-5, Dose [Inhibitor]: 0, 5 MG/KG INJECTED 4, 24, AND 48 HR AFTER EACH CARCINOGEN EXPOSURE (STUDY DURATION: 6 MO), Route [Inhibitor]: INTRAPERITONEAL, Species: RAT, Strain/Sex: BD6/MALE, Target Tissue: Type of Lesion: ESOPHAGUS: TUMOR, Dose [Carcinogen]: 80 MG/KG 1/WK FOR 5 WK): 4/29 (14%), 3/27 (11%), 21%, not calculated
- tumour outcome (control, treated, inhibition, significance) (Carcinogen: DIETHYLNITROSAMINE, 55-18-5, Dose [Inhibitor]: 0, 5 MG/KG INJECTED 4, 24, AND 48 HR AFTER EACH CARCINOGEN EXPOSURE (STUDY DURATION: 6 MO), Route [Inhibitor]: INTRAPERITONEAL, Species: RAT, Strain/Sex: BD6/MALE, Target Tissue: Type of Lesion: LIVER: TUMOR, Dose [Carcinogen]: 80 MG/KG 1/WK FOR 5 WK): 15/29 (52%), 25/27 (93%), -79%, not calculated
- tumour outcome (control, treated, inhibition, significance) (Carcinogen: DIETHYLNITROSAMINE, 55-18-5, Dose [Inhibitor]: 0, 10 MG/KG INJECTED 4, 24, AND 48 HR AFTER EACH CARCINOGEN EXPOSURE (STUDY DURATION: 6 MO), Route [Inhibitor]: INTRAPERITONEAL, Species: RAT, Strain/Sex: BD6/MALE, Target Tissue: Type of Lesion: ESOPHAGUS: TUMOR, Dose [Carcinogen]: 80 MG/KG 1/WK FOR 5 WK): 4/29 (14%), 0/7 (0%), 100%, not calculated
- tumour outcome (control, treated, inhibition, significance) (Carcinogen: DIETHYLNITROSAMINE, 55-18-5, Dose [Inhibitor]: 0, 10 MG/KG INJECTED 4, 24, AND 48 HR AFTER EACH CARCINOGEN EXPOSURE (STUDY DURATION: 6 MO), Route [Inhibitor]: INTRAPERITONEAL, Species: RAT, Strain/Sex: BD6/MALE, Target Tissue: Type of Lesion: LIVER: TUMOR, Dose [Carcinogen]: 80 MG/KG 1/WK FOR 5 WK): 15/29 (52%), 6/7 (86%), -65%, not calculated

SMILES: CCCCC(=O)O[C@H]1CC[C@H]2[C@@H]3CCc4cc(O)ccc4[C@H]3CC[C@]12C
- tumour outcome (control, treated, inhibition, significance) (Carcinogen: DIMETHYLNITROSAMINE, 62-75-9, Dose [Inhibitor]: 1 MG IN CASTOR OIL ADMINISTERED TO IMMATURE RATS 1/4 WK FOR LIFE BEGINNING 100 D POST CARCINOGEN DOSE (STUDY DURATION: 1, Route [Inhibitor]: SUBCUTANEOUS, Species: RAT, Strain/Sex: STRAIN-CD/MALE, Target Tissue: Type of Lesion: KIDNEY TUBULE: ADENOMA, Dose [Carcinogen]: 30 MG/KG IN DISTILLED WATER ONCE, Promoter: NONE USED): 15/28 (54%), 9/25 (36%), 33%, not calculated
- tumour outcome (control, treated, inhibition, significance) (Carcinogen: DIMETHYLNITROSAMINE, 62-75-9, Dose [Inhibitor]: 1 MG IN CASTOR OIL ADMINISTERED TO IMMATURE RATS 1/4 WK FOR LIFE BEGINNING 100 D POST CARCINOGEN DOSE (STUDY DURATION: 1, Route [Inhibitor]: SUBCUTANEOUS, Species: RAT, Strain/Sex: STRAIN-CD/MALE, Target Tissue: Type of Lesion: KIDNEY: MESENCHYMAL TUMOR, Dose [Carcinogen]: 30 MG/KG IN DISTILLED WATER ONCE, Promoter: NONE USED): 16/28 (57%), 14/25 (56%), 2%, not significant
- tumour outcome (control, treated, inhibition, significance) (Carcinogen: DIMETHYLNITROSAMINE, 62-75-9, Dose [Inhibitor]: 1 MG IN CASTOR OIL ADMINISTERED TO IMMATURE RATS 1/4 WK FOR LIFE BEGINNING 100 D POST CARCINOGEN DOSE (STUDY DURATION: 1, Route [Inhibitor]: SUBCUTANEOUS, Species: RAT, Strain/Sex: STRAIN-CD/MALE, Target Tissue: Type of Lesion: KIDNEY: TRANSITIONAL CELL TUMOR, Dose [Carcinogen]: 30 MG/KG IN DISTILLED WATER ONCE, Promoter: NONE USED): 1/28 (4%), 0/25 (0%), 100%, not significant
- tumour outcome (control, treated, inhibition, significance) (Carcinogen: DIMETHYLNITROSAMINE, 62-75-9, Dose [Inhibitor]: 1 MG IN CASTOR OIL ADMINISTERED TO IMMATURE RATS 1/4 WK FOR LIFE BEGINNING 100 D POST CARCINOGEN DOSE (STUDY DURATION: 1, Route [Inhibitor]: SUBCUTANEOUS, Species: RAT, Strain/Sex: STRAIN-CD/MALE, Target Tissue: Type of Lesion: LUNG: ALVEOGENIC TUMOR, Dose [Carcinogen]: 30 MG/KG IN DISTILLED WATER ONCE, Promoter: NONE USED): 19/28 (68%), 6/25 (24%), 65%, p<0.001
- tumour outcome (control, treated, inhibition, significance) (Carcinogen: DIMETHYLNITROSAMINE, 62-75-9, Dose [Inhibitor]: 1 MG IN CASTOR OIL ADMINISTERED TO MATURE RATS 1/4 WK FOR LIFE BEGINNING 100 D POST CARCINOGEN DOSE (STUDY DURATION: 140, Route [Inhibitor]: SUBCUTANEOUS, Species: RAT, Strain/Sex: STRAIN-CD/MALE, Target Tissue: Type of Lesion: KIDNEY TUBULE: ADENOMA, Dose [Carcinogen]: 30 MG/KG IN DISTILLED WATER ONCE, Promoter: NONE USED): 16/26 (62%), 18/28 (64%), -3%, not significant
- tumour outcome (control, treated, inhibition, significance) (Carcinogen: DIMETHYLNITROSAMINE, 62-75-9, Dose [Inhibitor]: 1 MG IN CASTOR OIL ADMINISTERED TO MATURE RATS 1/4 WK FOR LIFE BEGINNING 100 D POST CARCINOGEN DOSE (STUDY DURATION: 140, Route [Inhibitor]: SUBCUTANEOUS, Species: RAT, Strain/Sex: STRAIN-CD/MALE, Target Tissue: Type of Lesion: LUNG: ALVEOGENIC TUMOR, Dose [Carcinogen]: 30 MG/KG IN DISTILLED WATER ONCE, Promoter: NONE USED): 13/26 (50%), 3/28 (11%), 78%, p<0.05
